Data on two molecules can be found in patent publication US6699892B2, “Pharmaceutically acceptable salt of amlodipine and method of preparing the same” (Yung Shin Pharmaceutical Industrial Co., Ltd., priority 2002, dated 2004).

Series [1] is classed as physicochemical. The following applies: 3 weeks. How it is done: The stability of amlodipine nicotinate and amlodipine besylate was tested at 45° C. and 75° C. for 3 weeks.
Series [2] in a line: Solubility in water at room temperature (saturated aqueous solution). The series is classed as physicochemical. The settings on record: room temperature of about 25° C. How it is done:
At the ambient temperature (room temperature of about 25° C.), a saturated aqueous solution of amlodipine nicotinate contains about 6.0 mg of the chemical per mL of water. In comparison, a saturated aqueous solution of amlodipine besylate contains about 2.0 mg of the chemical per mL of water.

For series [3] the following is noted: aqueous solution.
Setting [4] is: listed as amlodipine nicotinate.

Structures are written as SMILES. Converted amounts (≈) assume the structure as drawn. Where two headings read alike, the source gives them in different places.

As for `CCOC(=O)C1=C(COCCN)NC(C)=C(C(=O)OC)C1c1ccccc1Cl` (stereo not shown) [Amlodipine Besylate, amlodipine besylate, reference compound], in series [1], the “Stability Test (% of Sample Purity) (3-week) 45° C.” value came out at 99.6% and the “Stability Test (% of Sample Purity) (3-week) 75° C.” value is recorded as 97.8%. Further, the “Solubility in Water at Room Temperature” value in series [2] is recorded as “about 2.0 mg/ml”. Besides, the “pH Value” in series [3] is recorded as 6.09.
In the case of `CCOC(=O)C1=C(COCCN)NC(C)=C(C(=O)OC)C1c1ccccc1Cl` (stereo not shown) [Amlodipine Nicotinate, amlodipine nicotinate], the “Stability Test (% of Sample Purity) (3-week) 45° C.” value in series [1] is 99.7%. Besides, the “Stability Test (% of Sample Purity) (3-week) 75° C.” value in series [1] is given as 99.2%. Moreover, the “Solubility in Water at Room Temperature” value in series [2] is 6000 µg/mL (≈ 14.7 mM); in series [2] (setting [4]), “about 6.0 mg/ml”. In addition, the “pH Value” in series [3] and in series [3] (setting [4]) was 5.34 throughout.
